Test results from patent US6969702B2, “Compounds and methods for increasing neurogenesis” (priority 2002, dated 2005).
Marks after values point to notes of the source that are not given here. Bridge positions count the residues as written; N and C are the ends. Square brackets hold non-standard residues; d marks the D form. Peptide text beside a SMILES is read from it.

Columns and labels:
[1] = tested on: cAMP activation in mouse adult neural stem cells; experiment: cAMP detection (HitHunter EFC Cyclic AMP Chemiluminescence Assay); conditions: for Fold Induction cAMP: vs vehicle
[2] = tested on: mouse adult neural stem cells; experiment: ATP-assay: proliferation (ATP levels) of neurosphere-derived cells; conditions: for proliferation of neural stem cells: cAMP activators, GPCR-independent
[3] = Table 2, 100 nM (cAMP concentration)
[4] = Table 2, 1 nM (cAMP concentration)
[5] = Table 2, 1000 nM, 4 days, vs vehicle
[6] = Table 2, 10 nM (cAMP concentration)
[7] = Table 1, 100 nM, after 15 minutes
[8] = Table 1, 100 nM, 4 days in culture
[9] = Mus musculus, Neural stem cell, 96 h, read-out: Fold Induction ATP

`CC[C@H](C)[C@@H]1NC(=O)[C@H](CCCNC(=N)N)NC(=O)[C@H](CC(=O)O)NC(=O)[C@H](CCSC)NC(=O)[C@H](CCCNC(=N)N)NC(=O)CNC(=O)CNC(=O)[C@H](Cc2ccccc2)NC(=O)[C@@H](NC(=O)[C@H](CO)NC(=O)[C@H](CO)NC(=O)[C@H](CCCNC(=N)N)NC(=O)[C@H](CCCNC(=N)N)NC(=O)[C@H](CC(C)C)NC(=O)[C@@H](N)CO)CSSC[C@@H](C(=O)N[C@@H](CC(N)=O)C(=O)N[C@@H](CO)C(=O)N[C@@H](Cc2ccccc2)C(=O)N[C@@H](CCCNC(=N)N)C(=O)N[C@@H](Cc2ccc(O)cc2)C(=O)O)NC(=O)CNC(=O)[C@H](CC(C)C)NC(=O)CNC(=O)[C@H](CO)NC(=O)[C@H](CCC(N)=O)NC(=O)[C@H](C)NC(=O)CNC(=O)[C@H]([C@@H](C)CC)NC(=O)[C@H](CCCNC(=N)N)NC(=O)[C@H](CC(=O)O)NC(=O)[C@H](CCSC)NC(=O)[C@H](CCCNC(=N)N)NC(=O)CNC(=O)CNC(=O)[C@H](Cc2ccccc2)NC(=O)[C@@H](NC(=O)[C@H](CO)NC(=O)[C@H](CO)NC(=O)[C@H](CCCNC(=N)N)NC(=O)[C@H](CCCNC(=N)N)NC(=O)[C@H](CC(C)C)NC(=O)[C@@H](N)CO)CSSC[C@@H](C(=O)N[C@@H](CC(N)=O)C(=O)N[C@@H](CO)C(=O)N[C@@H](Cc2ccccc2)C(=O)N[C@@H](CCCNC(=N)N)C(=O)N[C@@H](Cc2ccc(O)cc2)C(=O)O)NC(=O)CNC(=O)[C@H](CC(C)C)NC(=O)CNC(=O)[C@H](CO)NC(=O)[C@H](CCC(N)=O)NC(=O)[C@H](C)NC(=O)CNC1=O` [Beta-ANP] was tested, and the “cAMP (pmol/well)” value [1, 3] was 070 ± 0.04 pmol/well and the “ATP (nM ATP/well)” value ([2]; Table 2, 100 nM, 4 days) was 13.6 ± 2.1 nM ATP/well.
`CC[C@H](C)[C@H](NC(=O)[C@H](C)NC(=O)[C@@H](NC(=O)[C@H](CCC(N)=O)NC(=O)[C@@H]1CCCN1C(=O)[C@H](Cc1ccccc1)NC(=O)[C@@H](NC(=O)[C@H](Cc1c[nH]cn1)NC(=O)[C@H](Cc1ccccc1)NC(=O)[C@H](CCCCN)NC(=O)[C@H](CC(N)=O)NC(=O)[C@H](Cc1ccccc1)NC(=O)[C@H](CC(=O)O)NC(=O)[C@H](CCC(N)=O)NC(=O)[C@@H](NC(=O)[C@H](Cc1ccc(O)cc1)NC(=O)[C@@H](NC(=O)CNC(=O)[C@H](CC(C)C)NC(=O)[C@H](CCSC)NC(=O)[C@@H]1CSSC[C@H](N)C(=O)NCC(=O)N[C@@H](CC(N)=O)C(=O)N[C@@H](CC(C)C)C(=O)N[C@@H](CO)C(=O)N[C@@H]([C@@H](C)O)C(=O)N1)[C@@H](C)O)[C@@H](C)O)[C@@H](C)O)[C@@H](C)O)C(=O)NCC(=O)N[C@H](C(=O)NCC(=O)N[C@@H](C)C(=O)N1CCC[C@H]1C(N)=O)C(C)C` [Calcitonin (human)] was tested, and the “cAMP (pmol/well)” value [1, 3] was 0.35 ± 0.15 pmol/well and the “ATP (nM ATP/well)” value ([2]; Table 2, 100 nM, 4 days) was 9.9 ± 1.6 nM ATP/well.
With `CC(C)C[C@H](NC(=O)[C@H](CC(C)C)NC(=O)[C@@H](Cc1c[nH]c2ccccc12)NC(=O)[C@H](Cc1ccccc1)NC(=O)[C@@H](Cc1c[nH]c2ccccc12)NC(=O)[C@H](CCC(N)=O)NC(=O)[C@H](CCC(N)=O)NC(=O)[C@@H]1CCCN1C(=O)[C@H](CCCCN)NC(=O)[C@@H]1CCCN1C(=O)[C@@H](CCCNC(=N)N)NC(=O)[C@@H]1CCCN1C(=O)CNC(=O)[C@H](CC(C)C)NC(=O)[C@H](CC(C)C)NC(=O)[C@H](Cc1ccc(O)cc1)NC(=O)CNC(=O)[C@H](C)NC(=O)[C@H](CO)NC(=O)[C@H](CC(N)=O)NC(=O)[C@H](CC(C)C)NC(=O)[C@@H](NC(=O)[C@H](Cc1c[nH]c2ccccc12)NC(=O)CN)[C@@H](C)O)C(N)=O` [Galanin (1-13)-Spantide-Amide, M40] (H-GWTLNSAGYLLGP[dR]PKPQQ[dW]F[dW]LL-NH2; N-terminus assumed) the “cAMP (pmol/well)” value [1, 4] was 0.82 ± 0.08 pmol/well and the “ATP (nM ATP/well)” value ([2]; Table 2, 100 nM, 4 days) was 7.10 ± 0.5 nM ATP/well.
`CC[C@H](C)[C@H](NC(=O)[C@H](Cc1ccccc1)NC(=O)[C@H](CCC(=O)O)NC(=O)[C@H](CCCCN)NC(=O)[C@H](C)NC(=O)[C@H](C)NC(=O)[C@H](CCC(N)=O)NC(=O)CNC(=O)[C@H](CCC(=O)O)NC(=O)[C@H](CC(C)C)NC(=O)[C@H](Cc1ccc(O)cc1)NC(=O)[C@H](CO)NC(=O)[C@H](CO)NC(=O)[C@@H](NC(=O)[C@H](CC(=O)O)NC(=O)[C@H](CO)NC(=O)[C@@H](NC(=O)[C@H](Cc1ccccc1)NC(=O)[C@@H](NC(=O)CNC(=O)[C@H](CCC(=O)O)NC(=O)[C@H](C)NC(=O)[C@@H](N)Cc1c[nH]cn1)[C@@H](C)O)[C@@H](C)O)C(C)C)C(=O)N[C@@H](C)C(=O)N[C@@H](Cc1c[nH]c2ccccc12)C(=O)N[C@@H](CC(C)C)C(=O)N[C@H](C(=O)N[C@@H](CCCCN)C(=O)NCC(=O)N[C@@H](CCCNC(=N)N)C(=O)NCC(=O)O)C(C)C` [Glucagon-Like Peptide-1 (7-37) (Human)] was tested, and the “cAMP (pmol/well)” value [1, 3] was 0.08 ± 0.01 pmol/well, the “Fold Induction cAMP” value ([1]; Table 2, 100 nM) was 1.4* (100 nM) fold and the “ATP (nM ATP/well)” value ([2]; Table 2, 1000 nM, 4 days) was 18.3 ± 1.4 nM ATP/well. The “Fold Induction ATP” value [2, 5] was 1.3** fold.
For `CCCCC#Cc1nc(N)c2ncn([C@@H]3O[C@H](C(=O)NCC)[C@@H](O)[C@H]3O)c2n1` [HE-NECA], the “cAMP (pmol/well)” value [1, 6] was 3.32 ± 0.28 pmol/well, the “Fold Induction cAMP” value ([1]; Table 2, 10 nM) was 1.8*** (10 nM) fold and the “ATP (nM ATP/well)” value ([2]; Table 2, 1000 nM, 4 days) was 8.2 ± 1.1 nM ATP/well. The “Fold Induction ATP” value [2, 5] was 1.8** fold.
For `CCCC(=O)Nc1ncnc2c1ncn2[C@@H]1O[C@H](CO)[C@@H](O)[C@H]1OC(=O)CCC` [N-6,2-O-Dibutyryladenosine, n-6,2-o-dibutyryladenosine], the “cAMP (pmol/well)” value [1, 7] was 0.10 ± 0.01 pmol/well, the “Fold Induction cAMP” value [1, 7] was 4.5** fold and the “ATP (nM ATP/well)” value [2, 8] was 13.9 ± 1.1 nM ATP/well. For the same compound, the “Fold Induction ATP” value ([2]; Table 1, 100 nM, 4 days, vs vehicle treated cells) was 1.5** fold and the “proliferation of neural stem cells” value [2] was “increase”.
For `Oc1ccc2c3c1O[C@H]1c4[nH]c5c(c4C[C@@]4(O)[C@@H](C2)N(CC2CC2)CC[C@]314)C[C@@]1(O)[C@H]2Cc3ccc(O)c4c3[C@@]1(CCN2CC1CC1)[C@H]5O4` [Nor-Binaltorphimine, nor-Binaltorphimine], the fold induction at 10 pM ([1]; Mus musculus, Neural stem cell, read-out: Fold Induction cAMP) was 6.3, the “cAMP (pmol/well)” value ([1]; Table 2, 0.01 nM (bracketed cAMP concentration)) was 6.10 ± 3.72 pmol/well and the fold induction at 0.0001 µM [2, 9] was 1.4. For the same compound, the “ATP (nM ATP/well)” value ([2]; Table 2, 0.1 nM, 4 days) was 19.4 ± 3.2 nM ATP/well.
For `COc1ccc(C2CNC(=O)C2)cc1OC1CCCC1` (stereo not shown) [Rolipram, rolipram], the fold induction at 0.1 µM ([1]; Mus musculus, Neural stem cell, 0.25 h, read-out: Fold Induction cAMP) was 3.8, the “cAMP (pmol/well)” value [1, 7] was 0.09 ± 0.03 pmol/well and the fold induction at 0.1 µM [2, 9] was 1.1. The “ATP (nM ATP/well)” value [2, 8] was 10.4 ± 0.4 nM ATP/well and the “proliferation of neural stem cells” value [2] was “increase”.
For `CC[C@H](C)[C@H](NC(=O)[C@H](CO)NC(=O)[C@H](CC(N)=O)NC(=O)[C@H](CC(C)C)NC(=O)[C@H](Cc1ccc(O)cc1)NC(=O)[C@H](CCCCN)NC(=O)[C@H](CCCCN)NC(=O)[C@@H](NC(=O)[C@H](C)NC(=O)[C@H](CCSC)NC(=O)[C@H](CCC(N)=O)NC(=O)[C@H](CCCCN)NC(=O)[C@H](CCCNC(=N)N)NC(=O)[C@H](CC(C)C)NC(=O)[C@H](CCCNC(=N)N)NC(=O)[C@@H](NC(=O)[C@H](Cc1ccc(O)cc1)NC(=O)[C@H](CC(N)=O)NC(=O)[C@H](CC(=O)O)NC(=O)[C@@H](NC(=O)[C@H](Cc1ccccc1)NC(=O)[C@@H](NC(=O)[C@H](C)NC(=O)[C@H](CC(=O)O)NC(=O)[C@H](CO)NC(=O)[C@@H](N)Cc1c[nH]cn1)C(C)C)[C@@H](C)O)[C@@H](C)O)C(C)C)C(=O)N[C@@H](CC(C)C)C(=O)N[C@@H](CC(N)=O)C(N)=O` [Vasoactive Intestinal Peptide (Human, Porcine, Rat)], the “cAMP (pmol/well)” value [1, 3] was 0.39 ± 0.12 pmol/well and the “ATP (nM ATP/well)” value ([2]; Table 2, 1000 nM, 4 days) was 20.6 ± 1.2 nM ATP/well.
For `CSCC[C@H](NC(=O)[C@H](CC(C)C)NC(=O)[C@@H]1CCCN1C(=O)[C@H](Cc1ccc(O)cc1)NC(=O)[C@H](Cc1ccccc1)NC(=O)[C@@H]1CSSC[C@H](NC(=O)[C@@H]2CCCN2C(=O)[C@@H](N)CCCNC(=N)N)C(=O)N2CCC[C@H]2C(=O)N[C@@H](CCC(N)=O)C(=O)N1)C(N)=O` [[Cys3,6, Tyr8, Pro9]-Substance P] (H-RPCPQCFYPLM-NH2; disulfide 3-6 (inferred); N-terminus and C-terminus assumed), the “cAMP (pmol/well)” value [1, 3] was 0.29 ± 10 pmol/well and the “ATP (nM ATP/well)” value ([2]; Table 2, 100 nM, 4 days) was 11.2 ± 0.4 nM ATP/well.
In the case of `CC(C)C[C@H](NC(=O)[C@@H]1CCCN1C(=O)[C@H](CO)NC(=O)[C@H](Cc1ccccc1)NC(=O)CNC(=O)[C@@H]1CCCN1C(=O)[C@@H]1CCCN1C(=O)[C@@H](N)CCCNC(=N)N)C(=O)O` [[Des-Arg9, Leu8]-Bradykinin], the “cAMP (pmol/well)” value [1, 4] is reported as 0.09 ± 0.02 pmol/well, the “Fold Induction cAMP” value ([1]; Table 2, 1 nM) is reported as 2.6* (1 nM) fold and the “ATP (nM ATP/well)” value ([2]; Table 2, 10 nM, 4 days) is reported as 9.8 ± 0.4 nM ATP/well. The “Fold Induction ATP” value ([2]; Table 2, 10 nM, 4 days, vs vehicle) was 1.1* fold.
`CCCC[C@H](NC(=O)[C@H](CO)NC(=O)[C@H](CC(N)=O)NC(=O)[C@H](CC(C)C)NC(=O)[C@H](Cc1c[nH]cn1)NC(=O)[C@H](CCCCN)NC(=O)CNC(=O)[C@H](CC(C)C)NC(=O)[C@H](CC(N)=O)NC(=O)[C@H](Cc1c[nH]cn1)NC(=O)[C@H](CCCC)NC(=O)[C@H](CC(C)C)NC(=O)[C@H](CCC(N)=O)NC(=O)[C@@H](NC(=O)[C@H](CCC(=O)O)NC(=O)[C@H](CO)NC(=O)[C@@H](NC(=O)[C@@H](N)CO)C(C)C)[C@@H](C)CC)C(=O)N[C@@H](CCC(=O)O)C(=O)N[C@@H](CCCNC(=N)N)C(=O)N[C@H](C(=O)N[C@@H](CCC(=O)O)C(=O)N[C@@H](Cc1c[nH]c2ccccc12)C(=O)N[C@@H](CC(C)C)C(=O)N[C@@H](CCCNC(=N)N)C(=O)N[C@@H](CCCCN)C(=O)N[C@@H](CCCCN)C(=O)N[C@@H](CC(C)C)C(=O)N[C@@H](CCC(N)=O)C(=O)N[C@@H](CC(=O)O)C(=O)N[C@H](C(=O)N[C@@H](Cc1c[nH]cn1)C(=O)N[C@@H](CC(N)=O)C(=O)N[C@@H](Cc1ccc(O)cc1)C(N)=O)C(C)C)C(C)C` [[Nle8,18, Tyr34]-Parathyroid Hormone (1-34) Amide (Human)] was tested, and the “cAMP (pmol/well)” value [1, 6] was 0.16 ± 0.05 pmol/well, the “Fold Induction cAMP” value ([1]; Table 2, 10 nM) was 2.6* (10 nM) fold and the “ATP (nM ATP/well)” value ([2]; Table 2, 1000 nM, 4 days) was 23.5 ± 2.7 nM ATP/well. For the same compound, the “Fold Induction ATP” value [2, 5] was 1.7** fold.
